Experimental data: ChEMBL document CHEMBL1641547, “Biologically active constituents from the fruiting body of Taiwanofungus camphoratus” (Bioorg Med Chem, 2011)
Converted amounts (≈) assume the structure as drawn.

Tests used:
HEp-2 = assay: Cytotoxicity against human Hep2 cells after 3 days by MTT assay; format: functional; conditions: HEp-2, 72 h, read-out: ED50 (the source's name)
MCF7 = assay: Cytotoxicity against human MCF7 cells after 3 days by MTT assay; format: functional; conditions: MCF7, 72 h, read-out: ED50 (the source's name)
HeLa = assay: Cytotoxicity against human HeLa cells after 3 days by MTT assay; format: functional; conditions: 72 h, read-out: ED50 (the source's name)
Daoy = assay: Cytotoxicity against human DaOY cells after 3 days by MTT assay; format: functional; conditions: 72 h, read-out: ED50 (the source's name)
[1] = Inhibition of NOX in fMLP-induced PMN cells assessed as ROS production
[2] = molecular target: T1, Nitric oxide synthase, inducible (Mus musculus, UniProt P29477); assay: Inhibition of iNOS in mouse BV2 microglial cells assessed as NO production; format: cell-based
T1 sequence (P29477 whole entry): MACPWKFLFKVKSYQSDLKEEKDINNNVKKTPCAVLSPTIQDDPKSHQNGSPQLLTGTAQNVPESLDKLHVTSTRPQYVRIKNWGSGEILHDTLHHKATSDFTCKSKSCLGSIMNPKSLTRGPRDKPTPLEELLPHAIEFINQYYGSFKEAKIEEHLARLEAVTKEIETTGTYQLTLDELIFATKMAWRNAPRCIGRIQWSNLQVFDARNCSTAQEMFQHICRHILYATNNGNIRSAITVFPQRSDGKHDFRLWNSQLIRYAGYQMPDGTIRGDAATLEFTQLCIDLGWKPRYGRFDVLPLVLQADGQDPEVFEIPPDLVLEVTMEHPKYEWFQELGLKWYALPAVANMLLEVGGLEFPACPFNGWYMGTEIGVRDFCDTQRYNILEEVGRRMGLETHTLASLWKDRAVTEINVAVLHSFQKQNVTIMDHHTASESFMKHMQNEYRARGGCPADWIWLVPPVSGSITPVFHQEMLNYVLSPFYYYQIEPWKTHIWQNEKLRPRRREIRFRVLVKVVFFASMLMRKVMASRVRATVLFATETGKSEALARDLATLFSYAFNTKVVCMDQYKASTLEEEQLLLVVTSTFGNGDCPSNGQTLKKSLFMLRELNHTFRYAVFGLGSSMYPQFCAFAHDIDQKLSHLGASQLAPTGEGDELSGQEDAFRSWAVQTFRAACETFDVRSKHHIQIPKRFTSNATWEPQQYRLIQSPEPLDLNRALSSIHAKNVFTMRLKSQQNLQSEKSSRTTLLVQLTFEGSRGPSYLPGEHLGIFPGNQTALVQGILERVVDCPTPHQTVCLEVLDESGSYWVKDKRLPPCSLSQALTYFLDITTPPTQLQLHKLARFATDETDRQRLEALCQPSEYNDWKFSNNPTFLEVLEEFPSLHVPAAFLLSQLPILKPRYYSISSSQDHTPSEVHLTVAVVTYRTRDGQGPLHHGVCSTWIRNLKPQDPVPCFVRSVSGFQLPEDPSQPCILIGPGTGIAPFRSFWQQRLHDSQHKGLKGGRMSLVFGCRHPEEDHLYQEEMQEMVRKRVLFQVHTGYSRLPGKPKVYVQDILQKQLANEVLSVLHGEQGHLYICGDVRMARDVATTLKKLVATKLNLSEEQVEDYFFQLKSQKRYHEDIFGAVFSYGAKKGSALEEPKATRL

[3] = Inhibition of mouse NOX activity in NADPH-induced mouse BV2 microglial cells assessed as ROS production; conditions: BV-2

SMILES	EC50 (HEp-2) [µg/mL]	EC50 (MCF7) [µg/mL]	EC50 (HeLa) [µg/mL]	EC50 (Daoy) [µg/mL]	IC50 [1] [µM]	IC50 [2] [µM]	IC50 [3] [µM]
COc1cc(C)c(OC)c2c1OCO2	> 20	> 20	> 20	> 20	19.9	–	–
COc1c(C)c(-c2c(C)c(OC)c3c(c2OC)OCO3)c(OC)c2c1OCO2	> 20	> 20	> 20	> 20	15.5	–	–
OC1O[C@@H](c2ccc3c(c2)OCO3)[C@@H]2CO[C@@H](c3ccc4c(c3)OCO4)[C@H]12 (stereo not given in full) [4-HYDROXYSESAMIN]	> 20	> 20	> 20	> 20	–	–	–
C=C(CC[C@@H](C)[C@H]1CC[C@H]2C3=C(C(=O)C[C@]12C)[C@@]1(C)CCC(=O)[C@@H](C)[C@@H]1CC3)C(C)C(=O)O (stereo not given in full) [ANTCIN A]	> 20	13.3 (≈ 29.3 µM)	> 20	13.2 (≈ 29 µM)	29.2	4.1	–
C=C(CC[C@@H](C)[C@H]1CC[C@H]2C3=C(C(=O)C[C@]12C)[C@@]1(C)CC[C@@H](O)[C@](C)(O)[C@@H]1C[C@@H]3O)C(C)C(=O)O (stereo not given in full) [ANTCIN K]	> 20	> 20	> 20	> 20	47.2	–	–
C=C(C)C#Cc1c(OC)cc(OC)c(OC)c1C [ANTROCAMPHIN A]	10.5 (≈ 42.6 µM)	3.4 (≈ 13.8 µM)	6.9 (≈ 28 µM)	5.9 (≈ 24 µM)	15.1	7.2	50.1
C=C(C)C#Cc1c(C)c(OC)c(OC)c2c1OCO2 [BENZOCAMPHORIN B]	–	–	–	–	14.4	–	–
C=C(CC[C@@H](C)[C@H]1CC[C@H]2C3=C(C(=O)C[C@]12C)[C@@]1(C)CC[C@@H](O)[C@@H](C)[C@@H]1C[C@@H]3O)C(C)C(=O)O (stereo not given in full) [CAMPHORATIN B]	–	–	–	–	32.1	15.7	–
C=C(CC[C@@H](C)[C@H]1CC[C@H]2C3=C(C(=O)C[C@]12C)[C@@]1(C)CCC(=O)[C@@H](C)[C@@H]1C[C@@H]3O)C(C)C(=O)O (stereo not given in full) [CAMPHORATIN D]	> 20	> 20	> 20	> 20	22.6	4.2	–
C=C(CC[C@@H](C)[C@H]1CC[C@H]2C3=C(C(=O)C[C@]12C)[C@@]1(C)CC[C@@H](O)[C@@H](C)[C@@H]1CC3=O)C(C)C(=O)OC (stereo not given in full) [CAMPHORATIN E]	7 (≈ 14.4 µM)	6.6 (≈ 13.6 µM)	9 (≈ 18.6 µM)	5.2 (≈ 10.7 µM)	–	–	–
C=C(CC[C@@H](C)[C@H]1CC[C@H]2C3=C(C(=O)C[C@]12C)[C@@]1(C)CCC(=O)[C@@H](C)[C@@H]1C[C@@H]3O)C(C)C(=O)OC (stereo not given in full) [CAMPHORATIN F]	3 (≈ 6.19 µM)	7.9 (≈ 16.3 µM)	8.9 (≈ 18.4 µM)	4.4 (≈ 9.08 µM)	11.2	2.5	–
C[C@H](/C=C/[C@H](C)[C@H](C)CO)[C@H]1CC[C@H]2C3=CC[C@H]4CC(=O)CC[C@]4(C)[C@H]3CC[C@]12C [CAMPHORATIN I]	–	–	–	–	17.5	12.7	–
C=C(CC[C@@H](C)[C@H]1CC[C@@H]2C3=C(C(=O)C[C@@]21C)[C@@]1(C)CCC(=O)[C@@H](C)[C@@H]1CC3)C(C)C(=O)OC (stereo not given in full) [CAMPHORATIN J]	> 20	8.7 (≈ 18.6 µM)	11.3 (≈ 24.1 µM)	> 20	15.8	1.6	–
CC(C)[C@@H](C)/C=C/[C@@H](C)[C@H]1CC[C@@H]2[C@]1(C)CC[C@H]1[C@]23C=C[C@]2(C[C@@H](O)CC[C@]12C)OO3 [ERGOSTEROL PEROXIDE]	–	–	–	–	20.3	–	–
CC(C)[C@@H](C)/C=C/[C@@H](C)[C@H]1CC[C@H]2C3=CC=C4C[C@@H](O)CC[C@]4(C)[C@H]3CC[C@]12C [ERGOSTEROL]	–	–	–	–	27.9	30.6	–
C=C(CC[C@@H](C)[C@H]1CC[C@H]2C3=C(C[C@H](O)[C@]12C)[C@@]1(C)CC[C@@H](O)[C@@H](C)[C@@H]1CC3=O)C(C)C(=O)OC (stereo not given in full) [METHYL ANTCINATE H]	> 20	> 20	> 20	> 20	18.1	2.5	–
C=C(CC[C@@H](C)[C@H]1CC[C@H]2C3=C(C(=O)C[C@]12C)[C@@]1(C)CCC(=O)[C@@H](C)[C@@H]1CC3)C(C)C(=O)OC (stereo not given in full) [METHYLANTCINATE A]	> 20	> 20	> 20	> 20	16.2	1.5	–
c1cc2c(cc1[C@H]1OC[C@H]3[C@@H]1CO[C@@H]3c1ccc3c(c1)OCO3)OCO2 [SESAMIN]	> 20	> 20	> 20	> 20	–	–	–
C=C(CC[C@@H](C)[C@H]1CC[C@H]2C3=C(C(=O)C[C@]12C)[C@@]1(C)CCC(=O)[C@@H](C)[C@@H]1CC3=O)C(C)C(=O)OC (stereo not given in full) [ZHANKUIC ACID A METHYL ESTER]	> 20	> 20	> 20	> 20	8.4	0.6	–
C=C(CC[C@@H](C)[C@H]1CC[C@H]2C3=C(C(=O)C[C@]12C)[C@@]1(C)CCC(=O)[C@@H](C)[C@@H]1CC3=O)C(C)C(=O)O (stereo not given in full) [ZHANKUIC ACID A]	16.6 (≈ 35.4 µM)	> 20	> 20	> 20	22.1	3.6	–
C=C(CC[C@@H](C)[C@H]1CC[C@H]2C3=C(C(=O)C[C@]12C)[C@@]1(C)CC[C@@H](O)[C@@H](C)[C@@H]1CC3=O)C(C)C(=O)O (stereo not given in full) [ZHANKUIC ACID B]	> 20	> 20	> 20	> 20	–	9.6	–
C=C(CC[C@@H](C)[C@H]1CC[C@H]2C3=C(C(=O)[C@H](O)[C@]12C)[C@@]1(C)CC[C@@H](O)[C@@H](C)[C@@H]1CC3=O)C(C)C(=O)O (stereo not given in full) [ZHANKUIC ACID C]	> 20	> 20	> 20	> 20	–	16.2	–
